Drawing on patent US20070043079A1, “Heterocyclic compound containing nitrogen atom and use thereof” (priority 2003, published 2007), this text covers IC50 for one compound.

In this experiment the target is T1, human CCR5 (Homo sapiens, UniProt P51681).
T1 construct: expressed in transfected cells
Briefly: Inhibition test on the binding of RANTES to CCR5 (RANTES-induced transient increase of Ca ion) in CCR5/CHO cells. It is filed as cell-based. As to the method:
The whole procedures were carried out by preparing gene high expressing cells under basic genetic engineering methods by utilizing conventional methods. Also, as to the methods for the measurement in the present invention, improvement of measurement accuracy and/or modification of measurement sensitivity were adopted in order to evaluate the compound of the present invention. Detailed methods for the experiment are illustrated below.
(1) Isolation of Human CCR5 Genes
Human placental cDNA was prepared using Marathon cDNA amplification kit (Clontech). […]
Thus established human CCR5 stable over-expressing CHO cells (CCR5/CHO cells) were suspended in Ham's F-12 medium containing FBS (10%) and dispensed in […] portions into a 96 well plate. […] Transient increase in the intracellular Ca^2+ concentration induced by the human RANTES was measured using a Ca^2+ detector for 96 well use (Hamamatsu Photonics), and inhibition ration (%) of the test compound was calculated by the following calculation formula. Inhibition ratio=(Ec−Ea)/Ec×100 • Ec: measured value of Ca^2+ transient increase by RANTES • Ea: measured value of Ca^2+ transient increase by RANTES when a test compound was added

Structures can show the parent of a compound that is named as a salt.

T1 sequence (P51681 whole entry): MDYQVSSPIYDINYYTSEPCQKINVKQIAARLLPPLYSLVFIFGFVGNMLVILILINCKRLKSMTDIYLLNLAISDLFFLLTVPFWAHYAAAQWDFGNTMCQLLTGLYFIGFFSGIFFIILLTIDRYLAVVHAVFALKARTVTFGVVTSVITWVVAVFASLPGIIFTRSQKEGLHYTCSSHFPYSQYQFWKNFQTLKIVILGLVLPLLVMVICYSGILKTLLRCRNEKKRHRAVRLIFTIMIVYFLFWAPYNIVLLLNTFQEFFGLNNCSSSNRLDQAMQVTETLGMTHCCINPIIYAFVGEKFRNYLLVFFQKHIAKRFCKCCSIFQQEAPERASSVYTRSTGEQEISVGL

Consider `COc1ccc(CN2CCC(c3ccc(CNC(=O)c4ccc(Cl)cc4)cc3)CC2)cc1OC` [Example 1, 4-chloro-N-{4-[1-(3,4-dimethoxybenzyl)piperidin-4-yl]benzyl}benzamide hydrochloride], for which the IC50 stood at 4.16 µM. This lies in the single-digit micromolar range.

The IC50 is the point on the concentration scale where inhibition reaches its midpoint. Higher therefore signals lower potency.
